Eleven molecules from US20220073521A1, “PYRIMIDINE AND FIVE-MEMBERED NITROGEN HETEROCYCLE DERIVATIVE, PREPARATION METHOD THEREFOR, AND MEDICAL USES THEREOF” (Tuojie Biotech (Shanghai) Co., Ltd., priority 2018, published 2022) can be followed below.

The subject of one data set is p-ERK in KYSE-520 cells. Kind of data set: Determination of p-ERK in KYSE-520 cells (HTRF). The class given is cell-based. Here is the method: KYSE-520 cells (Nanjing Cobioer Biosciences CO., Ltd.) in the logarithmic growth phase were inoculated (30,000 cells/well) in 1640 medium containing 10% of FBS, and adhered in a 96-well plate overnight (5% CO2, 37° C.). […] The cell culture was stopped with cell lysate. The level of phosphorylated ERK in KYSE-520 cells was determined by a method based on homogeneous time-resolved fluorescence HTRF (Cisbio, 64ERKPEG). The fluorescence values (Ex337 nm/Em625/665 nm) were read on the compatible HTRF reader (MD SpectraMax).

For another data set, the system named is KYSE-520 cells. Nature of the data set: KYSE-520 cell proliferation experiment (CellTiter-Glo, 7 days). The following applies: Homo sapiens. Type of data set: cell-based. On the procedure: The treated cell plate was incubated at 37° C., 5% CO2 for 7 days. CellTiter-Glo (Promega, G7573) was used to determine the number of viable cells in each well of the treated plate. 100 μL of the detection reagent was added to each well, and the plate was incubated at room temperature for 10 minutes. Then, the […] in each well was measured with Envision plate reader (PerkinElmer). […] The IC50 value was further calculated as the compound concentration required for 50% proliferation inhibition in the best-fit curve with […].

Data set [1] is described as follows: Pharmacokinetics assay in rats. The class given is in vivo, SD rats. Particulars: rat; for AUC: read-out: Area under curve AUC; for half-life: read-out: Half-life T1/2 (converted). On the procedure: Rats were used as test animals. The drug concentration in plasma at different time points was determined by LC/MS/MS method after intravenous administration or intragastrical administration of the compound of the present invention to rats. The pharmacokinetic behavior of the compound of the present invention was studied and evaluated in rats.
The atropisomer with a RT of 1.495 minutes in Examples 3 and 4, compounds of Example 17, Example 41 and Example 43.
Healthy male SD rats (6-8 weeks old), 3 rats per group.
Intravenous administration: A certain amount of the test compound was weighed, to which 10% by volume of N,N-dimethylacetamide, 33% by volume of triethylene glycol and 57% by volume of water were added to prepare a 1 mg/mL colorless, clear and transparent solution;
Intragastrical administration: A certain amount of the test compound was weighed, to which 0.5% by mass of hypromellose, 0.1% by volume of Tween 80 and 99.4% by volume of water were added to prepare a 1 mg/mL white suspension.
After an overnight fast, the SD rats were intravenously administered the test compound at an administration dose of 1 mg/kg, or intragastrically administered the test compound at an administration dose of 5 mg/kg.
The rats were intravenously administered the compound of the present invention. 0.2 ml of blood was taken from the jugular vein at 0.083, 0.25, 0.5, 1, 2, 4, 8 and 24 hours after the administration. The samples were placed in tubes containing EDTA-K2, and centrifuged at 4000 rpm and 4° C. for 5 minutes to separate the blood plasma. The plasma samples were stored at −75° C.
Or, the rats were intragastrically administered the compound of the present invention. 0.2 ml of blood was taken from the jugular vein at 0.25, 0.5, 1, 2, 4, 8 and 24 hours after the administration. The samples were placed in tubes containing EDTA-K2, and centrifuged at 4000 rpm and 4° C. for 5 minutes to separate the blood plasma. The plasma samples were stored at −75° C.
The content of the test compound in the plasma of rat after intragastrical administration of the test compound at different concentrations was determined: 50 μL of rat plasma at each time after administration was taken, to which 200 μL of a solution (50 ng/mL) of internal standard dexamethasone in acetonitrile was added. The plasma was vortex-mixed for 30 seconds, and centrifuged at 4700 rpm and 4° C. for 15 minutes. The supernatant was taken from the plasma samples, and a three-fold dilution was carried out by adding water. 2.0 μL of the supernatant was used for LC/MS/MS analysis.

For data set [2], the target named is T1, SHP2 wild-type phosphatase (recombinantly expressed full-length SHP2, aa 1-593) (Homo sapiens, UniProt Q06124).
T1 sequence (Q06124 1-593): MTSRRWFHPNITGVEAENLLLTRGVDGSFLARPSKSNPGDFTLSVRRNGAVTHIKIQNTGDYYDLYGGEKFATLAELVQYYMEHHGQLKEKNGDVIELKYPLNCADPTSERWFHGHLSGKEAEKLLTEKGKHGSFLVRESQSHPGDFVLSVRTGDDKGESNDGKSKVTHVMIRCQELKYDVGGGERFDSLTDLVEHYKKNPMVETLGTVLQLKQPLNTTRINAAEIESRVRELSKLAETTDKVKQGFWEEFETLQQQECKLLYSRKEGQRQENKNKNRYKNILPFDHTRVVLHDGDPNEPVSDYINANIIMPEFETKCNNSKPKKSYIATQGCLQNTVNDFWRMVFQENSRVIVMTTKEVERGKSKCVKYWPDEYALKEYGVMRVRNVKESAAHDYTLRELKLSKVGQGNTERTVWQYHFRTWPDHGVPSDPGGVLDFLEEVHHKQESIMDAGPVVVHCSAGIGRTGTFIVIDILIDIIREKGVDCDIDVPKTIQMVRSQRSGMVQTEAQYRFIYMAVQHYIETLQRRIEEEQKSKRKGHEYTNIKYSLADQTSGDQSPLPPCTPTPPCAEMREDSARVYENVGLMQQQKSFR
Kind of data set: In vitro activity on SHP2 wild-type phosphatase (DiFMUP fluorescence).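 Also: enzyme preincubated at room temperature, then DiFMUP reaction run at room temperature and halted with SDS, potency derived from a logistic curve fit.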 The following applies: wild-type full-length SHP2, activated polypeptide IRS1 0.5 nM, DiFMUP 30 μM.
Method: 0.2 nM recombinantly expressed full-length SHP2 (aa 1-593), 0.5 nM activated polypeptide IRS1 with double phosphorylation sites (sequence: H2N-LN(pY)IDLDLY(dPEG8)LST(pY)ASINFQK-amide) and a series of concentrations of the test compound (final concentrations were 1 μM, 0.3 μM, 0.1 μM, 0.03 μM, 0.01 μM, 0.003 μM, 0.001 μM, 0.0003 μM, 0.0001 μM, 0.00003 μM) were added to the phosphatase reaction solution (60 mM HEPES, pH 7.5 0.005% Brij-35, 75 mM NaCl, 75 mM KCl, 1 mM EDTA, 5 mM DTT). The reaction solution was shaked (350 rpm) at room temperature for 30 minutes. The reaction substrate DiFMUP with a final concentration of 30 μM was added, and the reaction solution was reacted at room temperature for 30 minutes. The phosphatase reaction was stopped by adding 5 μL of stop solution (60 mM HEPES, pH 7.5, 0.2% SDS). Ex358 nm/Em455 fluorescence value was read on the fluorescence plate reader MD SpectraMax.
The IC50 value of the compound was calculated using the four-parameter logit method. In the following formula, x represents the logarithmic form of the compound concentration, and F(x) represents the effect value (the inhibition rate of cell proliferation under the given concentration condition): F(x)=((A−D)/(1+((x/C)^B)))+D. A, B, C and D are four parameters. Different concentrations correspond to different inhibition rates, based on which an inverse curve was plotted, and the IC50 of the inhibitor was calculated from the curve. The IC50 of the compound was calculated with Primer premier 6.0.

The structures appear in SMILES notation. Where two headings read alike, the source gives them in different places.

`Cc1nc(N2CCC3(CC2)CO[C@@H](C)[C@H]3N)n2ccnc2c1-c1cccc(Cl)c1Cl` (single isomer, unassigned) [The atropisomer with a RT of 1.495 minutes in Examples 3 and 4]: the IC50 was 39 nM with p-ERK in KYSE-520 cells (Homo sapiens, KYSE-520, 2 h); 126 nM in the data set with KYSE-520 cells; 0.7 nM in data set [2]. The AUC was determined as 3130 ± 300 ng·h/mL in data set [1] (male, SD, plasma, IV 1 mg/kg) and 12500 ± 2470 ng·h/mL in data set [1] (male, SD, plasma, PO 5 mg/kg). Also, in data set [1] (male, SD, plasma, IV 1 mg/kg, read-out: Clearance CL_obs), the clearance was determined as 5.13 ± 0.59 mL/min/kg. Moreover, the half-life is 5.5 ± 0.59 h in data set [1] (male, SD, plasma, IV 1 mg/kg) and 6.18 ± 0.61 h in data set [1] (male, SD, plasma, PO 5 mg/kg). The bioavailability in data set [1] (male, SD, plasma, PO 5 mg/kg vs IV 1 mg/kg, read-out: Bioavailability F) was found to be 82.6 ± 17.8%. In addition, the Cmax in data set [1] (male, SD, plasma, PO 5 mg/kg, read-out: Maximum plasma concentration Cmax) came to 1220 ± 220 ng/mL. Moreover, the “Apparent distribution volume Vss_obs” value in data set [1] (IV 1 mg/kg) stood at 2.03 ± 0.15 L/kg.
With `C[C@@H]1OCC2(CCN(c3nc(N)c(Sc4ccnc(F)c4Cl)c4nccn34)CC2)[C@@H]1N` [Example 26, (3S,4S)-8-(7-Amino-8-((3-chloro-2-fluoropyridin-4-yl)thio)imidazo[1,2-c]pyrimidin-5-yl)-3-methyl-2-oxa-8-azaspiro[4.5]decan-4-amine], the 50% inhibitory concentration (IC50) with p-ERK in KYSE-520 cells (Homo sapiens, KYSE-520, 2 h) worked out at 11.6 nM; with KYSE-520 cells, 62 nM; in data set [2], 2.7 nM.
For `Nc1nccc(Sc2cnc(N3CCC4(CC3)Cc3ncccc3[C@H]4N)n3ccnc23)c1Cl` [Example 27, (S)-1′-(8-((2-Amino-3-chloropyridin-4-yl)thio)imidazo[1,2-c]pyrimidin-5-yl)-5,7-dihydrospiro[cyclopenta[b]pyridine-6,4′-piperidin]-5-amine] the same measures were 8 nM, 31.5 nM and 1.7 nM.
For the molecule `Nc1nc(N2CCC3(CC2)Cc2ncccc2[C@H]3N)n2ccnc2c1Sc1cccnc1C(F)(F)F` [Example 28, (S)-1′-(7-Amino-8-((2-(trifluoromethyl)pyridin-3-yl)thio)imidazo[1,2-c]pyrimidin-5-yl)-5,7-dihydrospiro[cyclopenta[b]pyridine-6,4′-piperidin]-5-amine], the 50% inhibitory concentration (IC50) with p-ERK in KYSE-520 cells (Homo sapiens, KYSE-520, 2 h) was determined as 8.6 nM; in the data set on KYSE-520 cells it was 21.6 nM; in data set [2], 2.6 nM.
For `Nc1nc(N2CCC3(CC2)Cc2ccccc2[C@H]3N)n2ccnc2c1Sc1cccnc1C(F)(F)F` [Example 30, (S)-1′-(7-Amino-8-((2-(trifluoromethyl)pyridin-3-yl)thio)imidazo[1,2-c]pyrimidin-5-yl)-1,3-dihydrospiro[indene-2,4′-piperidin]-1-amine], the IC50 was 6.1 nM in the data set with p-ERK in KYSE-520 cells (Homo sapiens, KYSE-520, 2 h); 8.9 nM in the data set on KYSE-520 cells; 1.4 nM in data set [2].
For `N[C@@H]1c2ccccc2CC12CCN(c1ncc(Sc3cccnc3C(F)(F)F)c3nccn13)CC2` [Example 31, (S)-1′-(8-((2-(Trifluoromethyl)pyridin-3-yl)thio)imidazo[1,2-c]pyrimidin-5-yl)-1,3-dihydro spiro[indene-2,4′-piperidin]-1-amine] the same measures were 6.5 nM, 52 nM and 3.4 nM.
In the case of `Nc1nccc(Sc2cnc(N3CCC4(CC3)Cc3ccccc3[C@H]4N)n3ccnc23)c1Cl` [Example 32, (S)-1′-(8-((2-Amino-3-chloropyridin-4-yl)thio)imidazo[1,2-c]pyrimidin-5-yl)-1,3-dihydrospiro[indene-2,4′-piperidin]-1-amine], the 50% inhibitory concentration (IC50) was 2.7 nM with p-ERK in KYSE-520 cells (Homo sapiens, KYSE-520, 2 h); 12.9 nM with KYSE-520 cells; 1 nM in data set [2].
For `N[C@@H]1c2cccnc2CC12CCN(c1ncc(Sc3cccnc3C(F)(F)F)c3nccn13)CC2` [Example 34, (S)-1′-(8-((2-(Trifluoromethyl)pyridin-3-yl)thio)imidazo[1,2-c]pyrimidin-5-yl)-5,7-dihydro spiro[cyclopenta[b]pyridine-6,4′-piperidin]-5-amine] the same measures were 5.4 nM, 92.5 nM and 2.8 nM.
The like results for `CNc1nccc(Sc2cnc(N3CCC4(CC3)Cc3ncccc3[C@H]4N)n3ccnc23)c1F` [Example 37, (S)-1′-(8-((3-Fluoro-2-(methylamino)pyridin-4-yl)thio)imidazo[1,2-c]pyrimidin-5-yl)-5,7-dihydrospiro[cyclopenta[b]pyridine-6,4′-piperidin]-5-amine] were, in that order, 8.6 nM, 37 nM and 4 nM.
In the case of `CC1(O)CN(c2nccc(Sc3cnc(N4CCC5(CC4)Cc4ncccc4[C@H]5N)n4ccnc34)c2Cl)C1` [Example 39, (S)-1-(4-((5-(5-Amino-5,7-dihydrospiro[cyclopenta[b]pyridine-6,4′-piperidin]-1′-yl)imidazo[1,2-c]pyrimidin-8-yl)thio)-3-chloropyridin-2-yl)-3-methylazetidin-3-ol], the IC50 with p-ERK in KYSE-520 cells (2 hours) was 10.3 nM; in the data set on p-ERK in KYSE-520 cells (Homo sapiens, KYSE-520, 2 h), 7.9 nM; with KYSE-520 cells, 24.1 nM; in data set [2] it was 1 nM.
As for `N[C@@H]1c2cccnc2CC12CCN(c1ncc(Sc3ccnc(N4CCOCC4)c3Cl)c3nccn13)CC2` [Example 40, (S)-1′-(8-((3-Chloro-2-morpholinopyridin-4-yl)thio)imidazo[1,2-c]pyrimidin-5-yl)-5,7-dihydrospiro[cyclopenta[b]pyridine-6,4′-piperidin]-5-amine], the IC50 in the data set on p-ERK in KYSE-520 cells (Homo sapiens, KYSE-520, 2 h) came to 6.5 nM; in the data set on KYSE-520 cells, 27.3 nM; in data set [2] it was 1.4 nM.
